Data published in patent US20040063662A1, “Selenophene anti-tumor agents” (priority 1996, published 2004).

Columns and labels:
CCRF-CEM = test: NCI human tumor cell panel: CCRF-CEM (Leukemia); format: cell-based; conditions: for GI50: read-out: Log10 GI50 (converted); for IC (TGI): read-out: Log10 TGI (converted)
K-562 = test: NCI human tumor cell panel: K-562 (Leukemia); format: cell-based; conditions: for GI50: K562, K-562, read-out: Log10 GI50 (converted); for IC (TGI): K562, K-562, read-out: Log10 TGI (converted)
MOLT-4 = test: NCI human tumor cell panel: MOLT-4 (Leukemia); format: cell-based; conditions: for GI50: MOLT-4, read-out: Log10 GI50 (converted); for IC (TGI): MOLT-4, read-out: Log10 TGI (converted)
RPMI-8226 = test: NCI human tumor cell panel: RPMI-8226 (Leukemia); format: cell-based; conditions: for GI50: RPMI-8226, read-out: Log10 GI50 (converted); for IC (TGI): RPMI-8226, read-out: Log10 TGI
A549/ATCC = test: NCI human tumor cell panel: A549/ATCC (Non-Small Cell Lung Cancer); format: cell-based; conditions: for IC (TGI): read-out: Log10 TGI (converted)
NCI-H226 = test: NCI human tumor cell panel: NCI-H226 (Non-Small Cell Lung Cancer); format: cell-based; conditions: NCI-H226, read-out: Log10 GI50 (converted)
COLO 205 = test: NCI human tumor cell panel: COLO 205 (Colon Cancer); format: cell-based; conditions: for GI50: COLO 205, read-out: Log10 GI50 (converted); for IC (TGI): COLO 205, read-out: Log10 TGI (converted)
HCT-116 = test: NCI human tumor cell panel: HCT-116 (Colon Cancer); format: cell-based; conditions: for GI50: HCT-116, read-out: Log10 GI50 (converted); for IC (TGI): HCT-116, read-out: Log10 TGI (converted)
KM12 = test: NCI human tumor cell panel: KM12 (Colon Cancer); format: cell-based; conditions: for IC (TGI): KM12, read-out: Log10 TGI (converted)
SW-620 = test: NCI human tumor cell panel: SW-620 (Colon Cancer); format: cell-based; conditions: for GI50: SW-620, read-out: Log10 GI50 (converted); for IC (TGI): SW-620, read-out: Log10 TGI (converted)
MALME-3M = test: NCI human tumor cell panel: MALME-3M (Melanoma); format: cell-based; conditions: Malme-3M; for GI50: read-out: Log10 GI50 (converted); for IC (TGI): read-out: Log10 TGI (converted)
SK-MEL-5 = test: NCI human tumor cell panel: SK-MEL-5 (Melanoma); format: cell-based; conditions: for GI50: SK-MEL-5, read-out: Log10 GI50 (converted); for IC (TGI): SK-MEL-5, read-out: Log10 TGI (converted)
UACC-257 = test: NCI human tumor cell panel: UACC-257 (Melanoma); format: cell-based; conditions: for GI50: UACC-257, read-out: Log10 GI50 (converted); for IC (TGI): UACC-257, read-out: Log10 TGI (converted)
UACC-62 = test: NCI human tumor cell panel: UACC-62 (Melanoma); format: cell-based; conditions: for GI50: UACC-62, read-out: Log10 GI50 (converted); for IC (TGI): UACC-62, read-out: Log10 TGI (converted)
OVCAR-3 = test: NCI human tumor cell panel: OVCAR-3 (Ovarian Cancer); format: cell-based; conditions: for GI50: OVCAR-3, read-out: Log10 GI50 (converted); for IC (TGI): OVCAR-3, read-out: Log10 TGI (converted)
OVCAR-8 = test: NCI human tumor cell panel: OVCAR-8 (Ovarian Cancer); format: cell-based; conditions: for GI50: OVCAR-8, read-out: Log10 GI50 (converted); for IC (TGI): OVCAR-8, read-out: Log10 TGI (converted)
SK-OV-3 = test: NCI human tumor cell panel: SK-OV-3 (Ovarian Cancer); format: cell-based; conditions: for GI50: SK-OV-3, read-out: Log10 GI50 (converted); for IC (TGI): SK-OV-3, read-out: Log10 TGI (converted)
A498 = test: NCI human tumor cell panel: A498 (Renal Cancer); format: cell-based; conditions: for GI50: A498, read-out: Log10 GI50 (converted); for IC (TGI): A498, read-out: Log10 TGI (converted)
ACHN = test: NCI human tumor cell panel: ACHN (Renal Cancer); format: cell-based; conditions: for GI50: read-out: Log10 GI50 (converted); for IC (TGI): read-out: Log10 TGI (converted)
CAKI-1 = test: NCI human tumor cell panel: CAKI-1 (Renal Cancer); format: cell-based; conditions: for GI50: CAKI-1, read-out: Log10 GI50 (converted); for IC (TGI): CAKI-1, read-out: Log10 TGI (converted)
SN12C = test: NCI human tumor cell panel: SN12C (Renal Cancer); format: cell-based; conditions: for GI50: read-out: Log10 GI50 (converted); for IC (TGI): read-out: Log10 TGI (converted)
DU-145 = test: NCI human tumor cell panel: DU-145 (Prostate Cancer); format: cell-based; conditions: for GI50: DU-145, read-out: Log10 GI50 (converted); for IC (TGI): DU-145, read-out: Log10 TGI (converted)
MCF7 = test: NCI human tumor cell panel: MCF7 (Breast Cancer); format: cell-based; conditions: for GI50: MCF7, read-out: Log10 GI50 (converted); for IC (TGI): MCF7, read-out: Log10 TGI (converted)
MDA-MB-231/ATCC = test: NCI human tumor cell panel: MDA-MB-231/ATCC (Breast Cancer); format: cell-based; conditions: Homo sapiens, MDA-MB-231, MDA-MB-231/ATCC; for GI50: read-out: Log10 GI50 (converted); for IC (TGI): read-out: Log10 TGI (converted)
T-47D = test: NCI human tumor cell panel: T-47D (Breast Cancer); format: cell-based; conditions: T47D; for GI50: read-out: Log10 GI50 (converted); for IC (TGI): read-out: Log10 TGI (converted)
[1] = tested on: panel of sixty different human tumor cell lines; test: NCI human tumor cell panel: whole panel (mean graph summary); conditions: for GI50 / CC50: Homo sapiens; for GI50: read-out: Log10 GI50, MG_MID, mean over the panel (converted); for CC50: read-out: Log10 LC50, MG_MID, mean over the panel (converted); for Log10 TGI, MG_MID: mean over the panel; for Log10 TGI, Delta / Log10 TGI, Range: whole panel

For `O=Cc1ccc(-c2ccc(-c3ccc(C=O)[se]3)s2)s1` [compound 688829], the GI50 (CCRF-CEM) was 7.94 µM, the IC (TGI) (CCRF-CEM) was greater than 100 µM and the GI50 (K-562) was 0.251 µM. It also gave an IC (TGI) (K-562) greater than 100 µM, a GI50 (MOLT-4) of 57.5 µM and an IC (TGI) (MOLT-4) greater than 100 µM. For the same compound, the GI50 (RPMI-8226) was 38.9 µM, the IC (TGI) (RPMI-8226) was greater than 100 µM and the IC (TGI) (A549/ATCC) was greater than 100 µM. It also gave a GI50 (NCI-H226) of 0.891 µM, a GI50 (COLO 205) of 12 µM and an IC (TGI) (COLO 205) of 33.1 µM. The GI50 (HCT-116) was 0.295 µM, the IC (TGI) (HCT-116) was greater than 100 µM and the IC (TGI) (KM12) was greater than 100 µM. The GI50 (SW-620) was 0.832 µM, the IC (TGI) (SW-620) was greater than 100 µM and the GI50 (MALME-3M) was 28.8 µM. For the same compound, the IC (TGI) (MALME-3M) was greater than 100 µM, the GI50 (SK-MEL-5) was 23.4 µM and the IC (TGI) (SK-MEL-5) was greater than 100 µM. For the same compound, the GI50 (UACC-257) was 0.195 µM, the IC (TGI) (UACC-257) was 0.513 µM and the GI50 (UACC-62) was 0.141 µM. The IC (TGI) (UACC-62) was greater than 100 µM, the GI50 (OVCAR-3) was 0.129 µM and the IC (TGI) (OVCAR-3) was 0.631 µM. The GI50 (OVCAR-8) was 15.1 µM, the IC (TGI) (OVCAR-8) was 93.3 µM and the GI50 (SK-OV-3) was 26.3 µM. The IC (TGI) (SK-OV-3) was greater than 100 µM, the GI50 (A498) was 0.0214 µM and the IC (TGI) (A498) was 0.0794 µM. The GI50 (ACHN) was greater than 100 µM, the IC (TGI) (ACHN) was greater than 100 µM and the GI50 (CAKI-1) was 0.191 µM. It also gave an IC (TGI) (CAKI-1) of 0.501 µM, a GI50 (SN12C) of 28.2 µM and an IC (TGI) (SN12C) of 85.1 µM. For the same compound, the GI50 (DU-145) was greater than 100 µM, the IC (TGI) (DU-145) was greater than 100 µM and the GI50 (MCF7) was 0.191 µM. It also gave an IC (TGI) (MCF7) greater than 100 µM, a GI50 (MDA-MB-231/ATCC) of 23.4 µM and an IC (TGI) (MDA-MB-231/ATCC) of 67.6 µM. For the same compound, the GI50 (T-47D) was 0.339 µM, the IC (TGI) (T-47D) was greater than 100 µM and the GI50 [1] was 5.37 µM. For the same compound, the CC50 [1] was 87.1 µM, the “Log10 TGI, MG_MID” value [1] was −4.35 and the “Log10 TGI, Delta” value [1] was 2.75. The “Log10 TGI, Range” value [1] was 3.10.

For `OCc1ccc(-c2ccc(-c3ccc(CO)[se]3)s2)s1` [compound 688830], the GI50 (CCRF-CEM) was 25.7 µM, the IC (TGI) (CCRF-CEM) was greater than 100 µM and the GI50 (K-562) was 0.0724 µM. The IC (TGI) (K-562) was 17.4 µM, the GI50 (MOLT-4) was 38.9 µM and the IC (TGI) (MOLT-4) was greater than 100 µM. The GI50 (RPMI-8226) was 37.2 µM, the IC (TGI) (RPMI-8226) was greater than 100 µM and the GI50 (A549/ATCC; read-out: Log10 GI50 (converted)) was 6.03 µM. The IC (TGI) (A549/ATCC) was 33.1 µM, the GI50 (COLO 205) was 0.447 µM and the IC (TGI) (COLO 205) was 5.5 µM. For the same compound, the GI50 (HCT-116) was 0.0275 µM, the IC (TGI) (HCT-116) was 17.4 µM and the GI50 (KM12; KM12, read-out: Log10 GI50 (converted)) was 47.9 µM. For the same compound, the IC (TGI) (KM12) was greater than 100 µM, the GI50 (SW-620) was 0.0398 µM and the IC (TGI) (SW-620) was 25.1 µM. The GI50 (MALME-3M) was 43.7 µM, the IC (TGI) (MALME-3M) was greater than 100 µM and the GI50 (SK-MEL-5) was 36.3 µM. The IC (TGI) (SK-MEL-5) was greater than 100 µM, the GI50 (UACC-257) was 0.0166 µM and the IC (TGI) (UACC-257) was 0.0457 µM. For the same compound, the GI50 (UACC-62) was 0.0135 µM, the IC (TGI) (UACC-62) was greater than 100 µM and the GI50 (OVCAR-3) was less than 0.01 µM. It also gave an IC (TGI) (OVCAR-3) of 0.0562 µM, a GI50 (OVCAR-8) of 6.92 µM and an IC (TGI) (OVCAR-8) of 30.9 µM. The GI50 (SK-OV-3) was 3.24 µM, the IC (TGI) (SK-OV-3) was 19.5 µM and the GI50 (A498) was less than 0.01 µM. It also gave an IC (TGI) (A498) of 0.0245 µM, a GI50 (ACHN) of 20.9 µM and an IC (TGI) (ACHN) greater than 100 µM. For the same compound, the GI50 (CAKI-1) was less than 0.01 µM, the IC (TGI) (CAKI-1) was 0.0282 µM and the GI50 (SN12C) was 49 µM. It also gave an IC (TGI) (SN12C) greater than 100 µM, a GI50 (DU-145) of 22.9 µM and an IC (TGI) (DU-145) greater than 100 µM. The GI50 (MCF7) was 0.0166 µM, the IC (TGI) (MCF7) was greater than 100 µM and the GI50 (MDA-MB-231/ATCC) was 12.6 µM. For the same compound, the IC (TGI) (MDA-MB-231/ATCC) was 35.5 µM, the GI50 (T-47D) was 0.288 µM and the IC (TGI) (T-47D) was 57.5 µM. For the same compound, the GI50 [1] was 2.29 µM, the CC50 [1] was 69.2 µM and the “Log10 TGI, MG_MID” value [1] was −4.62. The “Log10 TGI, Delta” value [1] was 2.99 and the “Log10 TGI, Range” value [1] was 3.61.
